Assays:
hNAMPT protein = hNAMPT protein (Homo sapiens (Human), UniProt P43490); experiment: NAMPT enzyme assay (TR-FRET/HTRF with BodiPY ligand); format: binding; settings: for inhibition at 1 µM: NAMPT inhibition at compound concentration 1 μM, read-out: Percent Inhibition; for IC50: NAMPT inhibition, IC50 range class
From the text: As discussed above, the invention provides compounds that are useful as inhibitors of the enzyme NAMPT. The NAMPT inhibition of a compound of the invention can be measured using a variety of methods known in the art. For example, the ability of a compound of the invention to inhibit NAMPT enzyme activity can be measured using a homogeneous time resolved fluorescence (HTRF) assay using hNAMPT protein and anti 6His-Tb in buffer treated with a compound of the invention (or control e.g., DMSO) and BodiPY ligand. The TR-FRET signal can be measured using a high throughput microplate reader (e.g., Pherastar). Excitation can be carried out at 320 nm. The percent inhibition value at a single concentration of compound of the invention can be calculated relative to a control treated sample. A concentration response curve can be generated for each compound of the invention and the curve fitted to generate an IC50 value. […] To measure the inhibition of NAMPT activity hNAMPT protein stock and anti 6His-Tb (Cisbio; Cat. No. […]TLB) is diluted to 3× final concentration with assay buffer (50 mM Tris-HCl (pH 7.5), 1 mM DTT, 100 mM NaCl, 10 mM MgCl2, 0.005% Tween 20). To this solution is added a test compound or vehicle control (DMSO) and BodiPY ligand (structure below). The plate is shaken for 1-2 min sealed and incubated for 1 h at rt in the dark. The TR-FRET signal is measured using BMG Pherastar (Lanthascreen protocol on BMG Pherastar). Excitation was carried out at 320 nm, and the ratio of emission of BodiPY (520 nm) to terbium (486 nm) was determined. Concentration response curves are generated by calculating the excitation increase in test compound-treated samples relative to DMSO-treated controls. For the assay method described above, test compound percent inhibition values at a single concentration are calculated relative to control (DMSO) treated samples. Compound concentration response curves are fitted to generate IC50 values from those curves. One skilled in the art will appreciate that these values generated either as percentage inhibition at a single concentration or IC50 values are subject to experimental variation.

PC3 cells = experiment: PC3 growth inhibition (Cell-titer glo, 72 hours); format: cell-based; settings: Homo sapiens, PC-3, 72 h, read-out: Percent Viability, PC3 cells, compound concentration 1.667 μM, 72 hours
Protocol: The invention also provides compounds that inhibit cell growth. The ability of a compound of the invention to inhibit the growth of cells can be measured using a variety of methods known in the art. For example, the ability of a compound of the invention to inhibit the growth of PC3 cells can be measured. PC3 cells can be plated and incubated overnight under CO2. For each measurement, a compound of the invention (or vehicle e.g., DMSO) can be diluted with AIM serum free medium and added to the cell plate. The cell plate can then be incubated for 72 h under CO2. Cell-titer glo solution can be added and the plates can be incubated protected from light and the amount of luminescences can be measured. Concentration response curves can be generated by calculating the luminescence increase in test compound treated samples relative to DMSO-treated controls. Percentage remaining viability values at a single concentration can be measured. Growth inhibition (GI50) or cell viability (LD50) values can be determined from thoses curves. In one embodiment, compounds of the invention have a percent viability in PC3 line @ 1.667 uM of <1%. In one embodiment, compounds of the invention have a percent viability in PC3 line @ 1.667 uM of <2%. In one embodiment, compounds of the invention have a percent viability in PC3 line @ 1.667 uM of <3%. In one embodiment, compounds of the invention have a percent viability in PC3 line @ 1.667 uM of <4%. In one embodiment, compounds of the invention have a percent viability in PC3 line @ 1.667 uM of <5%. In one embodiment, compounds of the invention have a percent viability in PC3 line @ 1.667 uM of <10%. In one embodiment, compounds of the invention have a percent viability in PC3 line @ 1.667 uM of <50%.
To measure PC3 growth inhibition, PC3 cells that were maintained in RPMI1640 growth medium (Life Technologies; Cat. No. 11875) at 37° C. under 5% CO2 are trypsinized and diluted at a density of 8×10^4 cells/ml, 25 ul per well of cells and plated in 384-well black tissue culture plate. The cells are incubated overnight at 37° C. under 5% CO2. For each measurement, a test compound or vehicle DMSO control is diluted with AIM serum free medium and added to the cell plate. The cell plate is incubated for 72 hours at 37° C. under 5% CO2. 25 μl Cell-titer glo solution (Promega; Cat. No. G8462) is added and the cell plates are incubated for 10 minutes protected from light. The luminescence is measured. Concentration response curves are generated by calculating the luminescence increase in test compound-treated samples relative to DMSO-treated controls. Percentage remaining viability values at a single concentration, growth inhibition (GI50) or cell viability (LD50) values are determined from those curves. One skilled in the art will appreciate that these values are subject to experimental variation.

Sequence of hNAMPT protein (P43490 whole entry): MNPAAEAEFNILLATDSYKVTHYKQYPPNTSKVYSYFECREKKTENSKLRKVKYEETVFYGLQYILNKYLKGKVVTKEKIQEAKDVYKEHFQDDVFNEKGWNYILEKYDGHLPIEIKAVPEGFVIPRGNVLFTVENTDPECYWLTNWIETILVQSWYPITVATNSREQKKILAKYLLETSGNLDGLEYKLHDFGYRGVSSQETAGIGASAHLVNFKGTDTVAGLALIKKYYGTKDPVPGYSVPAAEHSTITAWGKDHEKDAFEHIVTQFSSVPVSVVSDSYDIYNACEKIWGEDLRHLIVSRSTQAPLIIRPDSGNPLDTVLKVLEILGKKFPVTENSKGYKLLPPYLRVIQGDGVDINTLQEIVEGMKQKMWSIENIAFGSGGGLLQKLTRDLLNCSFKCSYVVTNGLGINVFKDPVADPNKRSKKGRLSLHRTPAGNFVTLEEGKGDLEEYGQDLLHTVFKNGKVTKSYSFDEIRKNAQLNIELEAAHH

| Compound | inhibition at 1 µM (hNAMPT protein) [%] | IC50 (hNAMPT protein) [nM] | viability at 1.667 µM (PC3 cells) [%] |
| --- | --- | --- | --- |
| CCOc1nc(-c2ccc(Cl)s2)nc2cc(C(=O)NCc3ccc4nccn4c3)ccc12 [Compound I-28, 2-(5-chloro-2-thienyl)-4-ethoxy-N-(imidazo[1,2-a]pyridin-6-ylmethyl)quinazoline-7-carboxamide] | 99 | < 10 | 1 |
| CCOc1nc(-c2ccc(F)cc2)nc2cc(C(=O)NCCCc3ccnnc3)ccc12 [Compound I-29, 4-ethoxy-2-(4-fluorophenyl)-N-[3-(pyridazin-4-yl)propyl]quinazoline-7-carboxamide] | 100 | < 10 | 1 |
| CC(C)(C)OCc1nc(-c2ccc(Cl)cc2)nc2cc(C(=O)NCCCc3ncc[nH]3)ccc12 [Compound I-30, 4-(tert-butoxymethyl)-2-(4-chlorophenyl)-N-[3-(1H-imidazol-2-yl)propyl]quinazoline-7-carboxamide] | 91 | 50 to 100 | 1 |
| O=C(NCCCc1ncc[nH]1)c1ccc2c(C3CC3)nc(-c3ccc(Cl)cc3)nc2c1 [Compound I-31, 2-(4-chlorophenyl)-4-cyclopropyl-N-[3-(1H-imidazol-2-yl)propyl]quinazoline-7-carboxamide] | 97 | 10 to 50 | 1 |
| CCOc1nc(-c2ccc(F)cc2)nc2cc(C(=O)NCCCc3ncc[nH]3)ccc12 [Compound I-32, 4-ethoxy-2-(4-fluorophenyl)-N-[3-(1H-imidazol-2-yl)propyl]quinazoline-7-carboxamide] | > 99 | < 10 | 2 |
| CCc1nc(-c2ccc(Cl)cc2)nc2cc(C(=O)NCCCc3ncc[nH]3)ccc12 [Compound I-33, 2-(4-chlorophenyl)-4-ethyl-N-[3-(1H-imidazol-2-yl)propyl]quinazoline-7-carboxamide] | 97 | 10 to 50 | 1 |
| CCOc1nc(-c2ccc(F)cc2)nc2cc(C(=O)NCc3ccc4nccn4c3)ccc12 [Compound I-34, 4-ethoxy-2-(4-fluorophenyl)-N-(imidazo[1,2-a]pyridin-6-ylmethyl)quinazoline-7-carboxamide] | 97 | < 10 | 1 |
| CCOc1nc(-c2ccc(Cl)s2)nc2cc(C(=O)NCCCc3ncc[nH]3)ccc12 [Compound I-35, 2-(5-chloro-2-thienyl)-4-ethoxy-N-[3-(1H-imidazol-2-yl)propyl]quinazoline-7-carboxamide] | > 99 | < 10 | 1 |
| CC(C)Oc1nc(-c2ccc(F)cc2)nc2cc(C(=O)NCCCc3ncc[nH]3)ccc12 [Compound I-36, 2-(4-fluorophenyl)-N-[3-(1H-imidazol-2-yl)propyl]-4-isopropoxyquinazoline-7-carboxamide] | > 99 | < 10 | 2 |
| COCCOc1nc(-c2ccc(F)cc2)nc2cc(C(=O)NCCCc3ncc[nH]3)ccc12 [Compound I-37, 2-(4-fluorophenyl)-N-[3-(1H-imidazol-2-yl)propyl]-4-(2-methoxyethoxy)quinazoline-7-carboxamide] | > 99 | < 10 | 2 |
| CCOc1nc(-c2ccc(Cl)cc2)nc2cc(C(=O)NCCCc3ncc[nH]3)ccc12 [Compound I-38, 2-(4-chlorophenyl)-4-ethoxy-N-[3-(1H-imidazol-2-yl)propyl]quinazoline-7-carboxamide] | > 99 | < 10 | 2 |
| CCN(C)c1nc(-c2ccc(F)cc2)nc2cc(C(=O)NCCCc3ncc[nH]3)ccc12 [Compound I-39, 4-[ethyl(methyl)amino]-2-(4-fluorophenyl)-N-[3-(1H-imidazol-2-yl)propyl]quinazoline-7-carboxamide] | 96 | 10 to 50 | 2 |
| O=C(NCCCc1ncc[nH]1)c1ccc2c(OCC3CC3)nc(-c3ccc(F)cc3)nc2c1 [Compound I-40, 4-(cyclopropylmethoxy)-2-(4-fluorophenyl)-N-[3-(1H-imidazol-2-yl)propyl]quinazoline-7-carboxamide] | > 99 | < 10 | 3 |
| CCNc1nc(-c2ccc(F)cc2)nc2cc(C(=O)NCCCc3ncc[nH]3)ccc12 [Compound I-41, 4-(ethylamino)-2-(4-fluorophenyl)-N-[3-(1H-imidazol-2-yl)propyl]quinazoline-7-carboxamide] | 92 | > 100 | 2 |
| CCNc1cc(OCC)c2ccc(C(=O)NCCCc3ncc[nH]3)cc2n1 [Compound I-42, 4-ethoxy-2-(ethylamino)-N-[3-(1H-imidazol-2-yl)propyl]quinoline-7-carboxamide] | 83 | > 100 | 11 |
| CCOc1cc(-c2ccc(F)cc2)nc2cc(C(=O)NCCCn3cccn3)ccc12 [Compound I-43, 4-ethoxy-2-(4-fluorophenyl)-N-[3-(1H-pyrazol-1-yl)propyl]quinoline-7-carboxamide] | 99 | < 10 | 77 |
| CCOc1cc(-c2ccc(F)cc2)nc2cc(C(=O)NCCCc3nccs3)ccc12 [Compound I-44, 4-ethoxy-2-(4-fluorophenyl)-N-[3-(1,3-thiazol-2-yl)propyl]quinoline-7-carboxamide] | 97 | < 10 | 58 |
| CCOc1cc(-c2ccc(F)cc2)nc2cc(C(=O)NCCCc3ccnnc3)ccc12 [Compound I-45, 4-ethoxy-2-(4-fluorophenyl)-N-[3-(pyridazin-4-yl)propyl]quinoline-7-carboxamide] | 100 | < 10 | 8 |
| CCOc1cc(-c2ccc(F)cc2)nc2cc(C(=O)NCCc3ccn[nH]3)ccc12 [Compound I-46, 4-ethoxy-2-(4-fluorophenyl)-N-[2-(1H-pyrazol-5-yl)ethyl]quinoline-7-carboxamide] | 97 | 10 to 50 | 3 |
| CCOc1cc(-c2ccc(F)cc2)nc2cc(C(=O)NCCc3ccc(C#N)cc3)ccc12 [Compound I-47, N-[2-(4-cyanophenyl)ethyl]-4-ethoxy-2-(4-fluorophenyl)quinoline-7-carboxamide] | 47 | < 10 | 99 |
| CCOc1cc(-c2ccc(F)cc2)nc2cc(C(=O)NCCc3cn[nH]c3)ccc12 [Compound I-48, 4-ethoxy-2-(4-fluorophenyl)-N-[2-(1H-pyrazol-4-yl)ethyl]quinoline-7-carboxamide] | 97 | 10 to 50 | 4 |
